This passage reports permeability Pe results from PubChem BioAssay AID624339 (Sanford-Burnham Center for Chemical Genomics, 2012).

The source made the active and inactive calls. The rule behind the calls is not given here.

The test system of the first data set is PAMPA artificial membrane permeability, pH 7.4. As to the kind of experiment: PAMPA permeability at pH 7.4 – biophysical, ADME assay (AID 624339). Particulars: at 100 µM; stronger effect = higher value. A general note: The PAMPA barrier holds no transporters, so it reflects passive diffusion.
As to `O=c1[nH]c2c(s1)C(c1cccnc1)C1C3CCC(C3)C1S2` (stereo not drawn), the permeability Pe is 830 10-6 cm/s.

For the molecule `O=C(CCNS(=O)(=O)c1cccc2nsnc12)N1CCN(c2ccccn2)CC1`, the permeability Pe is 143 10-6 cm/s.

Regarding `O=C1NCCCc2c1oc1ccc(O)cc21`, the permeability Pe was 13 10-6 cm/s.

`c1ccc(CC2CCN(c3ncnc4sccc34)CC2)cc1`: the permeability Pe is 1020 10-6 cm/s.

With `CCCn1ncc(CN2CCCC(C(=O)c3cccc(OC(C)C)c3)C2)c1C` (stereo not drawn), the permeability Pe was 1310 10-6 cm/s.

Take `Cc1nc(SCc2nc3ccccc3[nH]2)c2oc3ccccc3c2n1`: the permeability Pe was 720 10-6 cm/s.

On to `O=c1c(O)c(-c2cc(O)c(O)c(O)c2)oc2cc(O)cc(O)c12`, for which the permeability Pe was 1.7 10-6 cm/s (inactive).

For the molecule `O=S(=O)(NC1CCCCC1N1CCOCC1)c1ccc(Cl)cc1` (stereo not drawn), the permeability Pe was 815 10-6 cm/s.

On to `Oc1cc(O)cc(/C=C/c2ccc(O)c(O)c2)c1`, for which the permeability Pe is 1.2 10-6 cm/s (inactive).

Take `Cc1cc(C)n(-c2nc(NCCCO)c3c4c(sc3n2)CCCC4)n1`: the permeability Pe was 1130 10-6 cm/s.

`O=C(CSc1cccc2cccnc12)N1CCCC1`: the permeability Pe was 101 10-6 cm/s.

Regarding `O=C(O)c1cccnc1SCCc1ccccc1`, the permeability Pe is 17 10-6 cm/s.

On to `CS(=O)(=O)c1ccc(C(=O)OCC(=O)NC23CC4CC(CC(C4)C2)C3)cc1[N+](=O)[O-]`, for which the permeability Pe was 443 10-6 cm/s.

For the molecule `Brc1cc2c(cc1C1Nc3ccccc3C3C=CCC31)OCO2` (stereo not drawn), the permeability Pe is 37 10-6 cm/s.

As to `NC(=O)C1CCN(c2nc(-c3ccc(Br)cc3)cs2)CC1`, the permeability Pe is 284 10-6 cm/s.

For the molecule `CN(C)c1nc(N)nc(CSc2nnnn2-c2cccc3ccccc23)n1`, the permeability Pe was 268 10-6 cm/s.

As to `CC(=O)c1ccc(N2CCN(S(=O)(=O)c3ccc4c(c3)CC(=O)N4)CC2)cc1`, the permeability Pe is 194 10-6 cm/s.

Regarding `CCCN1CNc2c(c(=O)[nH]c(=S)n2CCc2ccc(OC)c(OC)c2)C1`, the permeability Pe is 75 10-6 cm/s.

Consider `CCCc1cc(C(=O)N(C2CCCCC2)C2CCCCC2)no1`, for which the permeability Pe is 0.01 10-6 cm/s (inactive).

Turning to `COC(=O)c1ccccc1NC(=O)c1ccc(F)cc1`, the permeability Pe is 629 10-6 cm/s.

Take `C=CCn1c(SCC(=O)c2ccc(O)c(O)c2)nnc1-c1ccccc1OC`: the permeability Pe was 88 10-6 cm/s.

As for `COc1nc(-c2ccccc2)nnc1-c1ccccc1`, the permeability Pe was 1240 10-6 cm/s.

As to `c1ccc(-c2nnc(N3CCOCC3)nc2-c2ccccc2)cc1`, the permeability Pe is 1490 10-6 cm/s.

`COc1ccc(S(=O)(=O)n2nc(OC(=O)c3ccccc3)cc2N)cc1`: the permeability Pe was 459 10-6 cm/s.

Turning to `CCCN(CCC)CCNC(=O)C1CCN(Cc2nc(-c3ccc(Cl)cc3)oc2C)CC1`, the permeability Pe was 1860 10-6 cm/s.

As for `O=C1C2CC=CCC2C(=O)N1c1n[nH]c(-c2ccccc2)n1` (stereo not drawn), the permeability Pe was 63 10-6 cm/s.

Take `Cn1nnnc1Sc1ncnc2scc(-c3ccccc3)c12`: the permeability Pe was 973 10-6 cm/s.

Take `Cc1cc(-c2nnc3n2CCCCC3)c(C)n1-c1ccccc1`: the permeability Pe is 393 10-6 cm/s.

Turning to `Cc1ccc(-n2c(N)c(C#N)c(-c3ccccc3)c(C#N)c2=O)cc1`, the permeability Pe is 67 10-6 cm/s.

Regarding `Brc1ccc2c(c1)CN1CCCC1=N2`, the permeability Pe was 786 10-6 cm/s.

Turning to `O=C(c1ccccn1)N(Cc1cccs1)C1(C(=O)NC2CCCCC2)CCCCC1`, the permeability Pe was 1580 10-6 cm/s.

`O=C(COc1ccccc1Br)NCCc1nc2ccccc2[nH]1`: the permeability Pe was 795 10-6 cm/s.

For the molecule `COc1ccc(N(C(=O)CCl)C(C(=O)NCCc2ccccc2)c2cccs2)cc1Cl` (stereo not drawn), the permeability Pe was 568 10-6 cm/s.

As to `CC(C)C(=O)NC(c1ccco1)c1ccc2cccnc2c1O` (stereo not drawn), the permeability Pe was 286 10-6 cm/s.

With `CCOC(=O)C(C)Oc1cccc2c(=O)n(CC(=O)Nc3ccc4c(c3)OCCO4)ccc12` (stereo not drawn), the permeability Pe is 441 10-6 cm/s.

Take `O=c1[nH]c(SCc2ccc(Cl)cc2)nc2c1CCC2`: the permeability Pe is 631 10-6 cm/s.

`CCCC(=O)Nc1cccc(NC(=O)c2ccccc2Br)c1`: the permeability Pe was 190 10-6 cm/s.

Consider `COc1ccc(S(=O)(=O)N2CCN(S(=O)(=O)c3ccc4c(c3)OCCO4)CC2)cc1`, for which the permeability Pe is 562 10-6 cm/s.

With `Cc1ccnc(NC(=O)CCCOc2cc(=O)n(C)c3ccccc23)c1`, the permeability Pe was 510 10-6 cm/s.

For `O=C1CCCC2=C1C1(CCCC1)N=C(Nc1nc3ccccc3o1)N2`, the permeability Pe was 436 10-6 cm/s.

For the molecule `COc1ccc(CNCc2cccc3ccccc23)cc1`, the permeability Pe is 1130 10-6 cm/s.

With `O=[N+]([O-])c1ccc(CN2CCOCCOCCN(Cc3ccc([N+](=O)[O-])cc3)CCOCC2)cc1`, the permeability Pe is 1080 10-6 cm/s.

On to `C/C=C/Cn1c(SCCCc2ccccc2)nc2c1c(=O)[nH]c(=O)n2C`, for which the permeability Pe is 1340 10-6 cm/s.

For `O=S1(=O)Nc2c(ccc3cccnc23)-c2ccccc21`, the permeability Pe is 75 10-6 cm/s.

Consider `COc1ccc(OC)c(S(=O)(=O)Nc2cnc3ccccc3c2)c1`, for which the permeability Pe was 706 10-6 cm/s.

Regarding `Cc1ccc(C)c(OCCn2cc(C(=O)O)c3ccccc32)c1`, the permeability Pe was 256 10-6 cm/s.

Regarding `COc1ccc(C2CC(c3ccccc3)=NN2c2ccc(S(N)(=O)=O)cc2)cc1` (stereo not drawn), the permeability Pe was 278 10-6 cm/s.

In the case of `N#Cc1ccccc1CSc1nc2ncc(Br)cc2[nH]1`, the permeability Pe is 144 10-6 cm/s.

For `O=C(COC(=O)C12CC3CC(CC(C3)C1)C2)NCc1ccco1`, the permeability Pe was 195 10-6 cm/s.

Consider `COc1ccc(OC)c(-c2nnc3n2N=C(c2ccc(OC)c(OC)c2)CS3)c1`, for which the permeability Pe was 590 10-6 cm/s.

In the case of `O=C(O)c1ccc(N2C(=O)/C(=C/c3ccc(-c4ccc([N+](=O)[O-])cc4)o3)C=C2c2ccccc2)cc1`, the permeability Pe was < 0.8 10-6 cm/s (inactive).

As for `Cc1ccc(NC(=O)CCC(=O)N/N=C/c2ccc([N+](=O)[O-])o2)cc1C`, the permeability Pe is 37 10-6 cm/s.

As to `Cc1ccc(NS(=O)(=O)c2ccc3c(c2)CCC(=O)N3)cc1C`, the permeability Pe is 622 10-6 cm/s.

In the case of `COc1ccccc1N(/N=C1\Sc2ccccc2C1=O)C(C)=O`, the permeability Pe was 831 10-6 cm/s.

Take `CCN1CCN(c2nc3ccccc3nc2C(C#N)C(=O)OC2CCCCC2)CC1` (stereo not drawn): the permeability Pe was 2130 10-6 cm/s.

For `O=c1oc2c(O)c(O)cc3c(=O)oc4c(O)c(O)cc1c4c23`, the permeability Pe is 3.1 10-6 cm/s (inactive).

With `CN(C)c1oc(-c2ccc(OCc3ccc(Cl)cc3)cc2)nc1C#N`, the permeability Pe was 208 10-6 cm/s.

Turning to `COc1ccc(CSc2nc(C)cc(=O)[nH]2)cc1`, the permeability Pe was 165 10-6 cm/s.

With `CCCc1nc2c(=O)n(C)c(=O)nc-2n(C)n1`, the permeability Pe was 0 10-6 cm/s (inactive).

Regarding `c1ccc2c(Nc3nnc(-c4ccncc4)s3)cccc2c1`, the permeability Pe was 211 10-6 cm/s.

On to `N#C/C(=C\c1ccc([N+](=O)[O-])o1)c1nc2ccccc2[nH]1`, for which the permeability Pe is 145 10-6 cm/s.

With `CCOc1ccc(-c2nc(-c3ccncc3)no2)cc1OCC`, the permeability Pe was 1030 10-6 cm/s.

For the molecule `CN1CSC(=S)N(C)C1`, the permeability Pe is 18 10-6 cm/s.

In the case of `CCc1nnc(NC(=O)c2ccc(NS(=O)(=O)c3ccccc3)cc2)s1`, the permeability Pe was 163 10-6 cm/s.

As to `CCOc1ccc(NC(=S)N2CCC(C(O)(c3ccccc3)c3ccccc3)CC2)cc1`, the permeability Pe is 682 10-6 cm/s.

Regarding `O=c1c2ccccc2[se]n1-c1ccccc1`, the permeability Pe was 448 10-6 cm/s.

`Cc1cc(C(=O)CN2C(=O)CCC2=O)c(C)n1Cc1ccccc1`: the permeability Pe is 250 10-6 cm/s.

For `Cc1ccc(S(=O)(=O)n2c(N)nc3ccccc32)cc1`, the permeability Pe is 370 10-6 cm/s.

As for `COc1cc(NC(=O)c2cc(C3CC3)on2)c(OC)cc1Cl`, the permeability Pe is 720 10-6 cm/s.

Turning to `Cc1cccc(-n2cnc3cc(C(=O)N4CCCCC4)ccc32)c1`, the permeability Pe was 748 10-6 cm/s.

Regarding `CCc1oc2ccccc2c1C(=O)c1cc(Br)c(O)c(Br)c1`, the permeability Pe is 71 10-6 cm/s.

With `Cc1cc2c(s1)c1cnn(Cc3ccccc3F)c(=O)c1n2C`, the permeability Pe was 913 10-6 cm/s.

On to `Cc1ccc(N2CCN(S(=O)(=O)N3CCCCC3)CC2)c(C)c1`, for which the permeability Pe was 263 10-6 cm/s.

Turning to `CC1CCCN(C(C(=O)Nc2ccc3c(c2)OCCO3)c2ccccc2)C1` (stereo not drawn), the permeability Pe is 2010 10-6 cm/s.

In the case of `Cn1cnc([N+](=O)[O-])c1Sc1ncnc2nc[nH]c12`, the permeability Pe is 3 10-6 cm/s (inactive).

With `CCCOc1ccc(-c2nc(OC)c3ccccc3n2)cc1`, the permeability Pe was 26 10-6 cm/s.

Regarding `Cc1cc(C)nc(-n2nc(C)c(Sc3ccc(F)cc3)c2N)n1`, the permeability Pe is 1020 10-6 cm/s.

Take `Cc1ccc(S(=O)(=O)NCc2ccc(C(=O)NCCN(Cc3ccccc3)C(C)C)cc2)cc1`: the permeability Pe was 1480 10-6 cm/s.

As to `O=C(O)CCC(NS(=O)(=O)c1ccc(-c2ccccc2)cc1)C(=O)O` (stereo not drawn), the permeability Pe is < 0.4 10-6 cm/s (inactive).

As to `COc1ccc(C2c3c(ncn(CCN4CCOCC4)c3=N)Oc3ccc4ccccc4c32)cc1OC` (stereo not drawn), the permeability Pe was 1440 10-6 cm/s.

With `O=C(O)c1ccccc1OCc1ccccc1Br`, the permeability Pe is 22 10-6 cm/s.

Staying with this data set, now noted: at 100 µM; with 20% ACN; stronger effect = higher value.
With `Cc1ccc(C)c(NS(=O)(=O)c2cc(C(=O)Nc3ccccc3-c3ccccc3)ccc2Cl)c1`, the permeability Pe was 253 10-6 cm/s.

Consider `CSc1nc(-c2ccc(C)cc2)nc(C(Cl)Cl)n1`, for which the permeability Pe was 154 10-6 cm/s.

On to `COc1ccc(Sc2ccc(NC(=O)c3ccccc3Cl)cc2C#N)cc1`, for which the permeability Pe was 487 10-6 cm/s.

In the case of `Cc1ccccc1N1CCN(c2ncnc3c2cnn3Cc2ccc(Cl)cc2)CC1`, the permeability Pe is 1100 10-6 cm/s.

As for `Cc1ccc(C(=O)n2c3ccccc3c3ccccc32)cc1`, the permeability Pe is 352 10-6 cm/s.

Regarding `CN(C)C1=C(Cl)C(=O)N(c2ccc(Cl)c(Cl)c2)C1=O`, the permeability Pe is 381 10-6 cm/s.

`COc1cccc(-c2nc(-c3ccc(NC(=O)Cc4ccccc4OC)cc3)no2)c1`: the permeability Pe was 863 10-6 cm/s.
